Source: patent publication US9963446B2, “Oxepan-2-yl-pyrazol-4-yl-heterocyclyl-carboxamide compounds and methods of use” (Genentech, Inc., priority 2014, dated 2018)
pEC50, pIC50, pKi: −log10 of the molar value.

How the values were obtained:
[1] = test system: MM1.S (multiple myeloma) cells; test: In vitro cell proliferation, MM1.S (CELL TITER GLO); type: cell-based; settings: Homo sapiens, 72 hours, read-out: Prolif MM1S ATP (EC50)
Protocol: (§1) BaF3 parental line was obtained from the DSMZ repository. BaF3 lines transfected with PIM1 or PIM2 were generated. Mouse IL-3 was purchased from R&D Systems. G418 was purchased from Clontech. Media for BaF3 parental line contained RPMI, 10% FBS, 2 mM L-Glutamine, 2 ng/mL mIL-3. Media for BaF3 PIM1 & 2 lines contained RPMI, 10% FBS, 2 mM L-Glutamine, […]. Media for MM1.S (multiple myeloma cells) line contained RPMI, 10% FBS, 2 mM L-Glutamine.
(§2) BaF3, a murine interleukin-3 dependent pro-B cell line, parental cells, BaF3 PIM1 cells, BaF3 PIM2 cells, and MM1.S (multiple myeloma) cells were seeded at 2 k/well, 5 k/well, 5 k/well, and 10 k/well respectively, in a 384-well plate, at 45 μL/well. Test compound was added at 5 μL/well. BaF3 cells (parental and transfected) were incubated overnight, while MM1.S cells were incubated for 72 hours at 37° C., 5% CO2. CELL TITER GLO® Reagent (Promega) was added at 50 μL/well, the plates were incubated for 30 minutes, and their luminescence read on an HT Analyst. IC50/EC50 values for the test compound were calculated.

[2] = molecular target: PIM1 (Homo sapiens (Human), UniProt P11309); test: Pim kinase binding activity (PIM1 LC3K Ki); type: biochemical; settings: 20 pM PIM1, 10 μM ATP, 90 minutes
Sequence of PIM1 (P11309 whole entry, the tested form may be a part): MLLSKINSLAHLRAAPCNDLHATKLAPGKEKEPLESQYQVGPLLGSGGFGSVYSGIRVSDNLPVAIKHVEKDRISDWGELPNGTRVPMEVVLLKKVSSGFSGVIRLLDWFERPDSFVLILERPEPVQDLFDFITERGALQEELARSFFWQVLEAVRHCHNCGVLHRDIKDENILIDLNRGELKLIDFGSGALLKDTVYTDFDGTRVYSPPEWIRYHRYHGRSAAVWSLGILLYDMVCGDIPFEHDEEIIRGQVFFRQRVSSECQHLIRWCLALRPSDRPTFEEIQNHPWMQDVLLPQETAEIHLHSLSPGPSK
Protocol: PIM-1, -2, and -3 enzymes were generated as fusion proteins expressed in bacteria and purified by IMAC column chromatography (Sun, X., Chiu, J. F., and He, Q. Y. (2005) Expert Rev. Proteomics, 2:649-657). A fluorescent-labeled Pim-specific peptide substrate, was custom synthesized by American Peptide Company (Sunnyvale, Calif.). Reaction Buffer contained 10 mM HEPES, pH 7.2, 10 mM MgCl2, 0.01% Tween 20, 2 mM DTT. Termination Buffer contained 190 mM HEPES, pH 7.2, 0.015% Brij-35, 0.2% Coating Reagent 3 (Caliper Life Sciences, Hopkinton, Mass.), 20 mM EDTA. Separation Buffer contained 100 mM HEPES, pH 7.2, 0.015% Brij-35, 0.1% Coating Reagent 3, 1:200 Coating Reagent 8 (Caliper Life Sciences, Hopkinton, Mass.), 10 mM EDTA and 5% DMSO.
PIM reactions were carried out in a final volume of 10 μL per well in a 384-well plate. A standard enzymatic reaction, initiated by the addition of 5 μL 2×ATP and test compound to 5 μL of 2× enzyme and FAM-peptide, contained 20 pM PIM1, 50 pM PIM2, or 55 pM PIM3, 1 μM FAM-peptide, and 10 μM ATP, in Reaction Buffer. After 90 minutes of incubation at room temperature, the phosphorylation reaction was stopped by the addition of 10 μL Termination Buffer. The product and substrate in each independent reaction were separated on a 12-sipper microfluidic chip (Caliper Life Sciences, Hopkinton, Mass.) run on a Caliper LC3000® (Caliper Life Sciences, Hopkinton, Mass.). The separation of product and substrate was optimized by choosing voltages and pressure using Caliper's Optimizer software (Hopkinton, Mass.). The separation conditions used a downstream voltage of −500V, an upstream voltage of −2150V, and a screening pressure of −1.2 psi. The product and substrate fluorophore were excited at 488 nm and detected at 530 nm. Substrate conversion was calculated from the electropherogram using HTS Well Analyzer software (Caliper Life Sciences, Hopkinton, Mass.). Ki values for the test compound were calculated. See Table 1 for representative PIM1 LC3K Ki in micromolar values of exemplary compounds.

[3] = test system: BaF3 PIM1 cells; test: In vitro cell proliferation, BaF3 transfected with PIM1; type: cell-based, murine; settings: Mus musculus; BaF3 PIM1 line, incubated overnight; read-out: Prolif BaF3 PIM1 (IC50)
Protocol: as §1, §2

[4] = test system: BaF3 parental cells; test: In vitro cell proliferation, BaF3 parental line + IL3; type: cell-based, murine; settings: Mus musculus; BaF3 parental line with mIL-3, incubated overnight; read-out: Prolif BaF3 + IL3 (IC50)
Protocol: as §1, §2

Row | pEC50 [1] | pKi [2] | pIC50 [3] | SMILES | pIC50 [4]
1 | 6.36 | 11.70 | 7.61 | C[C@H](F)c1cc(F)c(-c2nc(C(=O)Nc3cnn(C)c3[C@@H]3CC[C@@H](N)[C@H](F)CO3)cs2)c(F)c1 [Example 101, N-(5-((2S,5R,6S)-5-amino-6-fluorooxepan-2-yl)-1-methyl-1H-pyrazol-4-yl)-2-(2,6-difluoro-4-((S)-1-fluoroethyl)phenyl)thiazole-4-carboxamide] | 5.15
2 | 6.15 | 9.92 | 6.79 | Cn1ncc(NC(=O)c2csc(-c3c(O)cccc3F)n2)c1[C@@H]1CC[C@@H](N)[C@H](F)CO1 [Example 102, N-[5-[(2S,5R,6S)-5-amino-6-fluoro-oxepan-2-yl]-1-methyl-pyrazol-4-yl]-2-(2-fluoro-6-hydroxy-phenyl)thiazole-4-carboxamide] | 5.04
3 | 6.14 | 9.74 | 6.84 | N[C@H]1CC[C@H](c2c(NC(=O)c3csc(-c4c(F)cccc4F)n3)cnn2C2CC2)OC[C@@H]1F [Example 103, N-[5-[(2R,5S,6R)-5-amino-6-fluoro-oxepan-2-yl]-1-cyclopropyl-pyrazol-4-yl]-2-(2,6-difluorophenyl)thiazole-4-carboxamide] | 4.92
4 | 6.26 | 9.98 | 7.01 | Cn1ncc(NC(=O)c2csc(-c3ccc4c(c3)CCO4)n2)c1[C@@H]1CC[C@@H](N)[C@H](F)CO1 [Example 104, N-[5-[(2S,5R,6S)-5-amino-6-fluoro-oxepan-2-yl]-1-methyl-pyrazol-4-yl]-2-(2,3-dihydrobenzofuran-5-yl)thiazole-4-carboxamide] | 4.88
5 | 6.33 | 10.02 | 6.85 | Cn1ncc(NC(=O)c2csc(-c3cnccn3)n2)c1[C@@H]1CC[C@@H](N)[C@H](F)CO1 [Example 105, N-[5-[(2S,5R,6S)-5-amino-6-fluoro-oxepan-2-yl]-1-methyl-pyrazol-4-yl]-2-pyrazin-2-yl-thiazole-4-carboxamide] | < 4.60
6 | 6.63 | 10.82 | 7.52 | C[C@@H](F)c1cc(F)c(-c2nc(C(=O)Nc3cnn(C)c3[C@@H]3CC[C@@H](N)[C@H](F)CO3)cs2)c(F)c1 [Example 106, N-(5-((2S,5R,6S)-5-amino-6-fluorooxepan-2-yl)-1-methyl-1H-pyrazol-4-yl)-2-(2,6-difluoro-4-((R)-1-fluoroethyl)phenyl)thiazole-4-carboxamide] | 5.07
7 | 5.24 | 10.00 | 6.58 | CO[C@H]1[C@H](C)O[C@@H](c2c(NC(=O)c3csc(-c4c(F)cccc4F)n3)cnn2C)CC[C@@H]1N [Example 107, N-(5-((2R,5S,6R,7S)-5-amino-6-methoxy-7-methyloxepan-2-yl)-1-methyl-1H-pyrazol-4-yl)-2-(2,6-difluorophenyl)thiazole-4-carboxamide] | 4.68
8 | 6.31 | 10.38 | 7.09 | COc1cc(F)c(-c2nc(C(=O)Nc3cnn(C)c3[C@@H]3CC[C@@H](N)[C@H](F)CO3)cs2)cc1Cl [Example 108, N-[5-[(2S,5R,6S)-5-amino-6-fluoro-oxepan-2-yl]-1-methyl-pyrazol-4-yl]-2-(5-chloro-2-fluoro-4-methoxy-phenyl)thiazole-4-carboxamide] | 5.72
9 | 6.54 | 10.72 | 7.40 | Cn1ncc(NC(=O)c2csc(-c3cc4[nH]ncc4cc3F)n2)c1[C@@H]1CC[C@@H](N)[C@H](F)CO1 [Example 109, N-[5-[(2S,5R,6S)-5-amino-6-fluoro-oxepan-2-yl]-1-methyl-pyrazol-4-yl]-2-(5-fluoro-1H-indazol-6-yl)thiazole-4-carboxamide] | 5.51
10 | 6.83 | 10.74 | 7.20 | Cc1cnc(-c2nc(C(=O)Nc3cnn(C)c3[C@@H]3CC[C@@H](N)[C@H](F)CO3)cs2)cn1 [Example 110, N-[5-[(2S,5R,6S)-5-amino-6-fluoro-oxepan-2-yl]-1-methyl-pyrazol-4-yl]-2-(5-methylpyrazin-2-yl)thiazole-4-carboxamide] | 5.04
11 | 5.82 |  | 7.02 | Cn1ncc(NC(=O)c2csc(-c3c(F)cc4c(c3F)OCC[C@@H]4O)n2)c1[C@@H]1CC[C@@H](N)[C@H](F)CO1 [Example 111, N-(5-((2S,5R,6S)-5-amino-6-fluorooxepan-2-yl)-1-methyl-1H-pyrazol-4-yl)-2-((S)-6,8-difluoro-4-hydroxychroman-7-yl)thiazole-4-carboxamide] | < 4.60
12 | 6.74 |  | 7.53 | N[C@@H]1CC[C@@H](c2c(NC(=O)c3csc(-c4c(F)cccc4F)n3)cnn2CC(F)F)OC[C@H]1F [Example 115, N-(5-((2S,5R,6S)-5-amino-6-fluorooxepan-2-yl)-1-(2,2-difluoroethyl)-1H-pyrazol-4-yl)-2-(2,6-difluorophenyl)thiazole-4-carboxamide] | 5.26
13 | 5.57 |  | 5.56 | N[C@H]1CC[C@H](c2c(NC(=O)c3csc(-c4c(F)cccc4F)n3)cnn2CC(F)F)OC[C@@H]1F [Example 116, N-(5-((2R,5S,6R)-5-amino-6-fluorooxepan-2-yl)-1-(2,2-difluoroethyl)-1H-pyrazol-4-yl)-2-(2,6-difluorophenyl)thiazole-4-carboxamide] | 4.98
14 | 7.27 | 10.29 |  | C[C@@H]1O[C@H](c2c(NC(=O)c3csc(-c4c(F)cccc4F)n3)cnn2C)CC[C@@H](N)[C@@H]1F [Example 124, N-[5-[(2S,5R,6S,7S)-5-amino-6-fluoro-7-methyl-oxepan-2-yl]-1-methyl-pyrazol-4-yl]-2-(2,6-difluorophenyl)thiazole-4-carboxamide] | 
15 | < 4.60 | 7.48 |  | Cn1ncc(NC(=O)c2csc(-c3cn4ccncc4n3)n2)c1[C@@H]1CC[C@@H](N)[C@H](F)CO1 [Example 125, N-(5-((2S,5R,6S)-5-amino-6-fluorooxepan-2-yl)-1-methyl-1H-pyrazol-4-yl)-2-(imidazo[1,2-a]pyrazin-2-yl)thiazole-4-carboxamide] | 
16 | 5.10 | 8.83 |  | N[C@H]1CC[C@H](c2[nH]ncc2NC(=O)c2csc(-c3c(F)cccc3F)n2)OC[C@@H]1F [Example 126, N-(5-((2R,5S,6R)-5-amino-6-fluorooxepan-2-yl)-1H-pyrazol-4-yl)-2-(2,6-difluorophenyl)thiazole-4-carboxamide] | 
17 | 4.97 | 8.96 |  | Cc1cccnc1-c1nc(C(=O)Nc2cn[nH]c2[C@H]2CC[C@H](N)[C@@H](F)CO2)cs1 [Example 127, N-(5-((2R,5S,6R)-5-amino-6-fluorooxepan-2-yl)-1H-pyrazol-4-yl)-2-(3-methylpyridin-2-yl)thiazole-4-carboxamide] | 
18 | 5.52 | 9.11 |  | Cc1cccnc1-c1nc(C(=O)Nc2cn[nH]c2[C@@H]2CC[C@@H](N)[C@H](F)CO2)cs1 [Example 128, N-(5-((2S,5R,6S)-5-amino-6-fluorooxepan-2-yl)-1H-pyrazol-4-yl)-2-(3-methylpyridin-2-yl)thiazole-4-carboxamide] | 
19 | 5.14 | 9.02 |  | N[C@@H]1CC[C@@H](c2[nH]ncc2NC(=O)c2csc(-c3c(F)cccc3F)n2)OC[C@H]1F [Example 129, N-(5-((2S,5R,6S)-5-amino-6-fluorooxepan-2-yl)-1H-pyrazol-4-yl)-2-(2,6-difluorophenyl)thiazole-4-carboxamide] | 
